In PMC12837263, “β,β-Dimethylacrylalkannin Restores Colistin Efficacy Against mcr- and TCS-Mediated Resistant Gram-Negative Bacteria via Membrane Disturbance” (Antibiotics, 2025):
pIC50, pKd: −log10 of the molar value.

Legend:
[1] = system: six susceptible strains; assay: Checkerboard assay, six susceptible strains (summary); type: cell-based; conditions: with β,β-Dim
Method: The FICI of β,β-Dim–colistin combination was determined by a checkerboard assay. Briefly, two-fold serial dilutions of β,β-Dim and colistin were prepared in a 96-well plate. After incubation at 37 °C for 18 h with bacterial suspension (10^6 CFU/mL), OD600 values were measured. FICI = (MICβ,β-Dim in combination/MICβ,β-Dim) + (MICcolistin in combination/MICcolistin). The synergistic effect of β,β-Dim with other antibiotics was measured in the same way. Synergy was considered to be an FICI ≤ 0.5.

[2] = system: E. coli BW25113, E. coli BW25113-mcr-1, E. coli BW25113-pmrBR93P; assay: Intracellular colistin content (HPLC-MS/MS); type: cell-based; conditions: colistin 0.5 × MIC with β,β-Dim at the highest tested concentration; 30 min
Method: (§1) Overnight cultures E. coli BW25113, E. coli BW25113-mcr-1, and E. coli 1 BW25113-pmrBR93P were diluted to 10^8 CFU/mL and then co-incubated with colistin (0.5 × MIC) in the presence of β,β-Dim (0–4 μg/mL) for 30 min at 37 °C. The cultures were centrifuged and resuspended in 30% methanol. Bacteria were disrupted by sonication and centrifugation, supernatants were diluted in 20% acetonitrile, and intracellular colistin was quantified via HPLC-MS/MS (TQ-XS, Waters, Milford, MA, USA). Analyses were performed on a CORTECS Shield RP C18 column (Waters, Milford, MA, USA) at 40 °C, with a flow rate of 0.4 mL/min and an injection volume of 5 μL. The mobile phases consisted of solvent A (0.5% formic acid and acetonitrile in water) and solvent B (0.5% formic acid in water). Colistin was detected in positive ESI mode with ion transitions […] and m/z 386.0 > 101.0. […] Mobile phases included solvent A (acetonitrile) and solvent B (water). β,β-Dim was detected in the negative electrospray ionization (ESI) mode with ion transitions m/z 369.1 > 269.0 and m/z 369.1 > 241.0.

[3] = system: K. pneumoniae 667; assay: Murine systemic (abdominal) infection model; type: in vivo; conditions: mice
Method: Mice were randomly assigned to five groups (n = 10) and infected intraperitoneally with K. pneumoniae 667 (8 × 10^6 CFUs). One hour post-infection, treatments were administered intraperitoneally: PBS, β,β-Dim (2 mg/kg), colistin (0.2 mg/kg), or β,β-Dim combined with colistin (2 + 0.2 mg/kg). Survival was continuously monitored. Upon death, the heart, liver, spleen, lungs, and kidney were immediately collected. At five days post-infection, surviving mice were euthanized, and the same organs were harvested. Half of each organ was weighed, homogenized, diluted, and plated on LA plates for bacterial colony enumeration. The remaining tissue samples were used for histopathological analysis.

[4] = Isothermal titration calorimetry (ITC); type: binding; conditions: 25 °C, β,β-Dim vs CL
Method: An isothermal titration calorimetry (ITC) assay was used to assess the affinity between β,β-Dim and PE, PG, and CL using NANO ITC (TA, New Castle, DE, USA). β,β-Dim (0.01 mM) was loaded into the sample cell and titrated with 20 injections of 2 μL membrane components (0.2 mM) at 120 s intervals. The assay was performed at 25 °C with a stirring rate of 350 rpm. Data were analyzed using the independent binding model to calculate the dissociation constant (KD), stoichiometric ratio (n), enthalpy change (ΔH), and entropy change (ΔS).

[5] = system: S. aureus ATCC 29213; assay: Membrane permeability (PI); type: cell-based; conditions: β,β-Dim 0–32 µg/mL, 1 h
Method: The S. aureus ATCC 29213 bacterial suspension (OD600 = 0.5) was incubated with fluorescent probe propidium iodide (PI, Cat No. C1008S, Beyotime, Shanghai, China, final concentration 10 µM) for 30 min. Then, β,β-Dim (0–32 µg/mL) was added to the PI-labeled suspension in a black 96-well plate and incubated for 1 h. Fluorescence intensity was measured at an excitation/emission wavelength of 535/615 nm. The cytoplasmic membrane permeability of E. coli BW25113, E. coli BW25113-mcr-1, and E. coli BW25113-pmrBR93P induced by β,β-Dim was assessed by preparing spheroplasts.

[6] = system: sheep blood cells; assay: Hemolytic activity; type: cell-based; conditions: Ovis aries, Erythrocyte; sheep erythrocytes, 1 h; selection criterion; read-out: IC50 hemolysis
Method: (§2) Toxicity assessment was performed by using sheep blood cells, human renal proximal tubular epithelial HK-2, and human hepatocarcinoma HepG2. Briefly, 8% erythrocyte suspensions were incubated with the test compounds (0–250 µM) for 1 h at 37 °C. After centrifugation, supernatants were transferred to a 96-well plate, and absorbance was measured at 570 nm.
(§3) The HepG2 and HK-2 cells (10^4 cells/well) were cultured in DMEM medium containing 10% fetal bovine serum (FBS) and then placed in a 5% CO2 incubator for 24 h. The culture medium was replaced with fresh DMEM medium containing the compounds (0–250 µM), followed by a further 24 h incubation. Subsequently, 10 µL of CCK-8 was added and incubated for 1 h, and OD450nm values were measured.Hemolysis% = [OD570nm(drug) − OD570nm(blank)]/[OD570nm(TritonX−100) − OD570nm(blank)] × 100%Cell viability% = [OD450nm(drug) − OD450nm(blank)]/[OD450nm(negative) − OD450nm(blank)] × 100%

[7] = rats; cited from earlier work
[8] = system: E. coli BW25113, E. coli BW25113-mcr-1, and E. coli BW25113-pmrBR93P; assay: Intracellular β,β-Dim content (HPLC-MS/MS); type: cell-based; conditions: β,β-Dim 16 μg/mL with colistin 0–1 × MIC; three E. coli strains
Method: as §1

[9] = cited from earlier work
[10] = Cytotoxicity (CCK-8); type: cell-based; conditions: human, HK-2 cells and HepG2 cells; HK-2 and HepG2, 24 h; selection criterion
Method: as §2, §3

Row | Compound | reduction of colistin MIC [1] | intracellular colistin levels [2] | survival rate ([3]; day 5 post-infection, single i.p. β,β-Dim 2 mg/kg, colistin 0.2 mg/kg) [%] | histopathological analysis (tissue damage) ([3]; heart, liver, spleen, lung, kidney) | pKd [4] | membrane permeability (PI fluorescence intensity) [5] | pIC50 [6] | maximum tolerable dose [7] | no-observed-adverse-effect level (NOAEL) [7] [mg/kg] | intracellular β,β-Dim accumulation [8] | lipophilicity [9] | IC50 at 24 h [10] [µM]
1 | colistin | 4–64 fold | exceeding 0.6 µg per 10^8 CFUs | 20 | partially alleviated these lesions |  |  |  |  |  |  |  | 
2 | CC(C)=CC[C@H](OC(=O)C=C(C)C)C1=CC(=O)c2c(O)ccc(O)c2C1=O [β,β-Dim, β,β-dimethylacrylalkannin] |  |  |  |  | 4.91 | increased membrane permeability in a concentration-dependent manner | < 5.00 | exceeds 10 g/kg | 10 | approximately 60 ng per 10^8 CFUs | high lipophilicity | > 10
